The values that follow come from ChEMBL document CHEMBL4808246 (Bioorg Med Chem, 2021).

For data set [1], the target named is T1, Prostaglandin G/H synthase 1 (Ovis aries) (UniProt P05979).
T1 sequence (whole entry): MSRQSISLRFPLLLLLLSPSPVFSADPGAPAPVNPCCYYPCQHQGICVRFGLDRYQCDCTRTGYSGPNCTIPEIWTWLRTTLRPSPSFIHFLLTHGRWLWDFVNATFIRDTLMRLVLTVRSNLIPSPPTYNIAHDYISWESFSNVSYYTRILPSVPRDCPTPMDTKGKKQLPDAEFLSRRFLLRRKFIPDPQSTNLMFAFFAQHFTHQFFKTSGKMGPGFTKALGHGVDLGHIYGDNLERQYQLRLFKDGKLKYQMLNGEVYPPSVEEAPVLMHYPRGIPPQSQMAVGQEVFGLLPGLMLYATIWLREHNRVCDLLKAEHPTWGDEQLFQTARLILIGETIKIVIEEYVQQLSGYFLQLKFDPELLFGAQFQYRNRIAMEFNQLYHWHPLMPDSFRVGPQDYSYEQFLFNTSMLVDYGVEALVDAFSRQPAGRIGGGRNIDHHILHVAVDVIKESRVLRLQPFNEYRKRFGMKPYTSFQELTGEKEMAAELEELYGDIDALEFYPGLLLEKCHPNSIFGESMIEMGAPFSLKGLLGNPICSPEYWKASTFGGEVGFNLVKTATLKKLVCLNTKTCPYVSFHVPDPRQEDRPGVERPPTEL
The experiment in a line: Inhibition of ovine COX-1 assessed as production of PGE2 using arachidonic acid as a substrate preincubated for 60 mins at 100 uM followed by substrate addition and measured after 2 mins by ELISA analysis relative to control. Conditions: time 62.0 min.

The target of data set [2] is T1, Prostaglandin G/H synthase 1 (Ovis aries). The experiment in a line: Inhibition of ovine COX-1 assessed as production of PGE2 using arachidonic acid as a substrate preincubated for 60 mins at 10 uM followed by substrate addition and measured after 2 mins by ELISA analysis relative to control.
Data set [3] has the same target. The experiment in a line: Inhibition of ovine COX-1 assessed as production of PGE2 using arachidonic acid as a substrate preincubated for 60 mins at 1 uM followed by substrate addition and measured after 2 mins by ELISA analysis relative to control.
The target is the same in data set [4]. The experiment in a line: Inhibition of ovine COX-1 assessed as production of PGE2 using arachidonic acid as a substrate preincubated for 60 mins at 0.1 uM followed by substrate addition and measured after 2 mins by ELISA analysis relative to control.
Data set [5] addresses T2, Prostaglandin G/H synthase 1 (Ovis aries, UniProt P05979).
T2 sequence (P05979 whole entry): T1 sequence (whole entry)
The experiment in a line: Inhibition of ovine COX-1 assessed as production of PGE2 using arachidonic acid as a substrate preincubated for 60 mins followed by substrate addition and measured after 2 mins by ELISA analysis.

The target of data set [6] is T3, Prostaglandin G/H synthase 2 (Homo sapiens, UniProt P35354).
T3 sequence (P35354 whole entry): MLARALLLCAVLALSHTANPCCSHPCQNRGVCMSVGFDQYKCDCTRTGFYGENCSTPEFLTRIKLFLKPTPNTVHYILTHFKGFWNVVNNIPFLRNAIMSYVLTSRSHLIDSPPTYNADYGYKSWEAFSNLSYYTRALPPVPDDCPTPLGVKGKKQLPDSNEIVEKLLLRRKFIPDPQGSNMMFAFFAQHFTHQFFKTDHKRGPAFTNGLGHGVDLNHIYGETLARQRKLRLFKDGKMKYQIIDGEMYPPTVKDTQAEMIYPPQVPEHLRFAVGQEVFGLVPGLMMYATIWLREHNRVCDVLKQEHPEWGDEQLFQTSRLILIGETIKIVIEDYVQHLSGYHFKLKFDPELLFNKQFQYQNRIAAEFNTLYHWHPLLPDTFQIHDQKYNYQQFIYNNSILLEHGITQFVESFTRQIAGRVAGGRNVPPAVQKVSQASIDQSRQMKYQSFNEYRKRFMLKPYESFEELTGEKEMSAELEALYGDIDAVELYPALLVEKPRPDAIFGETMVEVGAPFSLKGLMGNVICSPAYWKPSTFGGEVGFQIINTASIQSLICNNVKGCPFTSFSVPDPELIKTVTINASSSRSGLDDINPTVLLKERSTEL
The experiment in a line: Inhibition of human recombinant COX-2 assessed as production of PGE2 using arachidonic acid as a substrate preincubated for 60 mins followed by substrate addition and measured after 2 mins by ELISA analysis.

The nature of data set [7]: Selectivity index, ratio of IC50 for ovine COX-1 to IC50 for human COX-2.
A short description of data set [8]: Solubility of the compound in water. Format: physicochemical. The conditions noted are these: buffer.
For data set [9], the system named is Mus musculus. The experiment in a line: Antiinflammatory activity in mouse xylene induced ear edema model assessed as ear weight difference at 30 mg/kg, po once daily administered for 3 days prior to xylene stimulation and measured after 30 mins (reference value: 13.64 =/- 2.55 mg). Format: functional. The conditions noted are these: time 3 day.
For data set [10], the system named is Mus musculus. The experiment in a line: Antiinflammatory activity in mouse xylene induced ear edema model assessed as inhibition of auricular edemas at 30 mg/kg, po once daily administered for 3 days prior to xylene stimulation and measured after 30 mins relative to control. The conditions noted are these: 72 h, time 3 day. In kind it is functional.
The subject of data set [11] is Mus musculus. The experiment in a line: Analgesic activity in mouse model of acetic-acid induced writhing assessed as number of writhes at 30 mg/kg, po once daily administered for 3 days prior to acetic acid injection measured after 20 mins (reference value: 29.13+/-9.36). Format: functional. The conditions noted are these: time 3 day.
Data set [12] deals with Mus musculus. The experiment in a line: Analgesic activity in mouse model of acetic-acid induced writhing assessed as inhibition of writhing at 30 mg/kg, po once daily administered for 3 days prior to acetic acid injection measured after 20 mins relative to control. The conditions noted are these: 72 h, time 3 day. In kind it is functional.

For `Cc1cc(-c2ccc3ccccc3c2)nn1S(=O)(=O)Oc1ccccc1`, the inhibition in data set [1] was found to be 27%; in data set [2], 13%; in data set [3] it was 7%; in data set [4], 4%.

As for `Cc1cc(-c2ccc(Cl)cc2)nn1S(=O)(=O)Oc1ccccc1`, the inhibition in data set [1] was 43%; in data set [2], 20%; in [3] it was 18%; in data set [4], 16%. For the same compound, the IC50 in data set [5] was more than 100 µM.

In the case of `Cc1ccc(-c2cc(C)n(S(=O)(=O)Oc3ccccc3I)n2)cc1`, the IC50 in data set [6] was 0.092 µM; in data set [5] it was more than 100 µM. For the same compound, the inhibition in [1] was found to be 19%; in data set [2], 14%; in data set [3], 9%; in [4], 4%. Also, the Ratio in [7] was more than 1090.

Take `Cc1ccccc1-c1cc(C)n(S(=O)(=O)Oc2ccccc2)n1`: in data set [6], the IC50 was found to be 11.1 µM. The inhibition came out at 42% in [1], 55% in data set [2], 63% in data set [3] and 65% in data set [4].

As to `Cc1cc(-c2ccncc2)nn1S(=O)(=O)Oc1ccccc1`, the inhibition in [1] is 61%; in data set [2], 43%; in data set [3], 40%; in data set [4], 36%.

On to `Cc1ccc(-c2cc(-c3ccccc3)n(S(=O)(=O)Oc3ccccc3)n2)cc1`, for which the inhibition in [1] is 6%; in [2], 1%; in [3], -3%; in [4] it was 10%.

For the compound `Cc1cccc(-c2cc(C)n(S(=O)(=O)Oc3ccccc3)n2)c1`, the results for the inhibition in data set [1] and in data set [2] were 53% and 33%, respectively. Moreover, in data set [5], the IC50 stood at 72.3 µM. Also, the solubility result in [8] was “Insoluble”. The Activity in the data set on Mus musculus [9] is given as 12.46 mg; in the data set with Mus musculus [11], 16.38. The figures for the inhibition in vivo at 30 mg/kg in the data set with Mus musculus [10] and in the data set on Mus musculus [12] were 8.7% and 43.8%, respectively.

With `Cc1cc(-c2cccnc2)nn1S(=O)(=O)Oc1ccccc1`, the inhibition in [1] amounted to 34%; in [2], 24%; in [3], 23%; in data set [4], 19%.

In the case of `Cc1cc(-c2ccc(C(F)(F)F)cc2)nn1S(=O)(=O)Oc1ccccc1`, the IC50 in data set [6] was less than 0.01 µM. The inhibition in data set [1] stood at 22%; in [2] it was 18%; in [3], 32%; in [4] it was 33%. Also, the solubility entry in [8] is “Insoluble”. Also, the Activity in the data set on Mus musculus [9] was determined as 8.75 mg; in the data set on Mus musculus [11], 21.63. Besides, the values for the inhibition in vivo at 30 mg/kg with Mus musculus [10] and in the data set with Mus musculus [12] were 35.9% and 25.8%, respectively.

Regarding `Cc1cc(-c2ccccn2)nn1S(=O)(=O)Oc1ccccc1`, the IC50 in data set [6] was 0.1 µM. The inhibition is 29% in [1], 29% in data set [2], 39% in data set [3] and 25% in data set [4]. Besides, in data set [8], the solubility result is “Insoluble”. For the same compound, the Activity with Mus musculus [9] amounted to 12.1 mg; with Mus musculus [11], 24.75. Besides, the inhibition in vivo at 30 mg/kg worked out at 11.3% with Mus musculus [10] and 15% in the data set with Mus musculus [12].

As for `Cc1cc(-c2cccc(Cl)c2)nn1S(=O)(=O)Oc1ccccc1`, in data set [6], the IC50 came out at 0.11 µM. Moreover, the inhibition in data set [1] was 14%; in [2], 5%; in [3], 17%; in data set [4], 8%. The solubility result in data set [8] is listed as “Insoluble”. Further, the Activity amounted to 8.18 mg in the data set on Mus musculus [9] and 23.63 in the data set on Mus musculus [11]. Further, the figures for the inhibition in vivo at 30 mg/kg in the data set on Mus musculus [10] and with Mus musculus [12] were 10% and 18.9%, respectively.

Consider `Cc1cc(-c2ccccc2)nn1S(=O)(=O)Oc1ccccc1C(F)(F)F`, for which the IC50 in data set [6] is more than 100 µM.

Turning to `Cc1ccc(-c2cc(C)n(S(=O)(=O)Oc3ccc(C)c(C)c3)n2)cc1`, the inhibition in data set [1] turned out to be 30%; in [2], 31%; in data set [3], 30%; in data set [4], 18%. In addition, in [5], the IC50 is more than 100 µM.

On to `Cc1cc(-c2ccc(F)cc2)nn1S(=O)(=O)Oc1ccccc1`, for which, in data set [6], the IC50 was more than 10 µM. Further, the inhibition in data set [1] was -2%.

Consider `Cc1cc(-c2ccco2)nn1S(=O)(=O)Oc1ccccc1`, for which the IC50 in data set [6] came out at 0.031 µM. In data set [4], the inhibition is 47%. In addition, the solubility entry in data set [8] is listed as “Insoluble”. Further, the Activity in the data set on Mus musculus [9] was 11.93 mg; with Mus musculus [11], 16.75. The figures for the inhibition in vivo at 30 mg/kg in the data set on Mus musculus [10] and in the data set on Mus musculus [12] were 12.5% and 42.5%, respectively.

As to `CCc1ccc(-c2cc(C)n(S(=O)(=O)Oc3ccccc3)n2)cc1`, the inhibition in data set [3] is -1%; in data set [4], 11%. Further, in data set [8], the solubility entry is listed as “Insoluble”. Also, the Activity amounted to 10.76 mg in the data set on Mus musculus [9] and 15.13 in the data set with Mus musculus [11]. In addition, the inhibition in vivo at 30 mg/kg came to 21.1% in the data set on Mus musculus [10] and 48.1% in the data set on Mus musculus [12].

Consider `Cc1cc(-c2cccs2)nn1S(=O)(=O)Oc1ccccc1`, for which the inhibition was determined as 38% in data set [1], 33% in data set [2], 24% in data set [3] and 18% in [4]. Further, the IC50 in data set [5] is more than 100 µM.

`Cc1cc(-c2ccccc2Cl)nn1S(=O)(=O)Oc1ccccc1`: the inhibition amounted to 60% in [1], 55% in [2], 55% in data set [3] and 61% in data set [4].

`Cc1ccc(-c2cc(C(C)C)n(S(=O)(=O)Oc3ccccc3)n2)cc1`: the inhibition in data set [1] turned out to be 21%; in data set [2], 47%; in data set [3], 39%; in data set [4], 20%. In [5], the IC50 was found to be 18.1 µM.

In the case of `CC(COCCOCCOCCOCCOCCOCCOCCOCCOCCOCCOCCOCCOCCOCCOCCOCCOCCOCCOCCOCCOCCOCCOCCOCCOCCOCCOCCOCCOCCOCCOCCOCCOCCOCCOCCOCCOCCOCCO)OCC(C)OCC(C)OCC(C)OCC(C)OCC(C)OCC(C)OCC(C)OCC(C)OCC(C)OCC(C)OCC(C)OCC(C)OCC(C)OCC(C)OCC(C)OCC(C)OCC(C)OCC(C)OCC(C)OCC(C)OCC(C)OCC(C)OCC(C)OCC(C)OCC(C)OCC(C)OCC(C)OCC(C)OCC(C)OCCOCCOCCOCCOCCOCCOCCOCCOCCOCCOCCOCCOCCOCCOCCOCCOCCOCCOCCOCCOCCOCCOCCOCCOCCOCCOCCOCCOCCOCCOCCOCCOCCOCCOCCOCCOCCOCCO` (configuration not stated), the solubility result in data set [8] was “Insoluble”. The Activity is 13.64 mg with Mus musculus [9] and 29.13 with Mus musculus [11]. In addition, the inhibition in vivo at 30 mg/kg with Mus musculus [10] and with Mus musculus [12] was 0% in each case.

For `COc1ccc(-c2cc(C)n(S(=O)(=O)Oc3ccccc3)n2)cc1`, the inhibition came to 30% in [1], 29% in data set [2], 21% in [3] and 19% in data set [4]. For the same compound, the IC50 in data set [5] was more than 100 µM.
